Measurements reported in article PMC12518639, “Apomorphine is a novel necroptosis inhibitor targeting mixed lineage kinase domain-like protein oligomerization” (Cell Death Discovery, 2025).
Structures can show the parent of a compound that is named as a salt. Where a SMILES comes first, the peptide text is derived from it. The star is where a group is joined. Cbz = O=C(OCc1ccccc1)*

System: THP-1-HMGB1-Lucia cells
Assay: TBZ-induced necroptosis screening by HMGB1-luciferase release
Type: cell-based, human
Conditions: 20 μM compound with TBZ, 8 h; TBZ alone = 100, DPBS = 0; read-out: % Inhibition (luciferase activity relative to TBZ-treated supernatant)
Protocol: To identify potential inhibitors of the necroptosis pathway targeting MLKL or the process of p-MLKL pore formation on the membrane, we screened a library of 2150 compounds, including FDA-approved drugs and those in phase 1–3 clinical trials, using THP-1-HMGB1-Lucia™ cells expressing the HMGB1-luciferase fusion protein. The cells were treated with a necroptosis-inducing mixture containing TNF-α, BV6, and Z-VAD-FMK (TBZ) in addition to the compound library (Fig. 1A). The supernatants were harvested to measure luciferase activities for necroptosis. The luciferase activities of cell supernatants treated with TBZ alone were considered as the maximum release (100%) of HMGB1-luciferase. NEC-1, a known RIP1 inhibitor used in both humans and mice, was used as a positive control. […] Next, we performed a propidium iodide (PI) uptake assay to exclude cytotoxic compounds using THP-1 cells. Then, we selected candidate molecules that were arbitrarily less than 30% of those treated with TBZ. […] Next, the inhibition levels of p-MLKL were tested to select MLKL-targeting molecules (Figs. 1C and S1A). Compounds that reduced p-MLKL levels to less than 30% of TBZ-treated controls were considered as potential inhibitors of MLKL phosphorylation. Conversely, compounds that maintained p-MLKL levels above 70% were selected because they are presumed to prevent the formation of pores in the plasma membrane by interfering with oligomerization.
A clinical chemical library containing 2150 items (Korea Chemical Bank, South Korea), under phase 1–3 clinical trials, including FDA-approved drugs, was used to screen for necroptosis inhibitors. Each chemical was dissolved in DMSO and diluted to 20 μM in DPBS for treatment.
THP-1-HMGB1-Lucia^TM cells were pretreated with the pan-caspase inhibitor Z-VAD-FMK (50 μM, tlrl-vad, InvivoGen) and each chemical for 1 h, and followed by TNF-α (100 ng/mL, TNF0501, NKMAXBio, Seongnam, S. Korea) and Smac mimetic BV6 (10 μM, B1332-5, Biovision, Santa Clara, CA, USA), termed TBZ mixture, were added for necroptosis screening. The RIP1 inhibitor, NEC-1 (1846, Biovision), and MLKL inhibitor, NSA (432531-71-0, Sigma-Aldrich, St. Louis, MO, USA), were used as controls. The cell supernatant was harvested to measure HMGB1 levels using a luciferase assay kit (E1500, Promega, Madison, WI, USA) by a luminometer (Centro XS3 LB 960, Berthold Technologies, Bad Wildbad, Germany). The inhibition of necroptosis (%) was calculated as: (sample-treated data – medium-only data) × 100/(TBZ-treated data – medium-only data). APO [STK088477, (6aS)-6-methyl-5,6,6a,7-tetrahydro-4H-dibenzo[de,g]quinoline-10,11-diol, Vitas-M Laboratory, Hong Kong] was stored at −70 °C after aliquoting with DMSO. APO was used after dilution in DPBS. APO is susceptible to auto-oxidation in solution in the presence of light and air. DPBS containing 5 mM DTT was used for Re-APO. Ox-APO was prepared by incubating APO in DPBS at 25 °C for 24 h in the presence of light and air, followed by removal of any precipitate by filtration through 0.2 μm.

Question: Which activity does the source give for CC(C)C[C@@H](C=O)NC(=O)[C@H](CC(C)C)NC(=O)[C@H](CC(C)C)NC(=O)OCc1ccccc1 [S6, Z-Leu-Leu-Leu-al] (Cbz-Leu-Leu-Leu-aldehyde) here?
Answer: 7.5%

Question: How did the activity turn out when COc1ccc(CN2CCN(C(c3ccc(F)cc3)c3ccc(F)cc3)CC2)c(OC)c1OC [S64, Lomerizine hydrochloride] was run?
Answer: 5.3%

Question: CN1C(=O)C(Cc2c[nH]c3ccccc23)NC1=S (centres unmarked) [Necrostatin-1] was tested. Which activity did it give?
Answer: 1.2%

Question: JTE 013 [S11] was tested. Which activity did it give?
Answer: 5.8%

Question: With O=C(Nc1ccc(S(=O)(=O)C(F)(F)F)cc1)C1=CCN(c2ncccc2C(F)(F)F)CC1 [S7, A 784168] as the compound, how does the activity read?
Answer: 4.2%

Question: Which activity does the source give for Cc1ccccc1N(C)C(=O)c1ccc([S+]([O-])c2nccs2)c([N+](=O)[O-])c1 (centres unmarked) [S32, SB 268262] here?
Answer: 0%

Question: CC(C)c1onc(-c2c(Cl)cccc2Cl)c1COc1ccc(/C=C/c2cccc(C(=O)O)c2)c(Cl)c1 [S27, GW4064] was tested. Which activity did it give?
Answer: 9.2%

Question: CC(=O)c1ccc(NC2=C(Cl)C(=O)c3ccccc3C2=O)cc1 [S21, NQ301] was tested. Which activity did it give?
Answer: 4.1%

Question: How did the activity turn out when CCCc1c(-c2ccc(O)cc2)nn(-c2ccc(O)cc2)c1-c1ccc(O)cc1 [S71, PPT] was run?
Answer: 1.5%

Question: Which activity does the source give for COc1ccc(CNc2nc(N(CCO)CCO)nc3c2ncn3C(C)C)cc1 [S12, CVT-313] here?
Answer: 4.7%

Question: For O=S(=O)(c1ccccc1)N(CC(F)(F)F)c1ccc(C(O)(C(F)(F)F)C(F)(F)F)cc1 [S52, T0901317], which activity is on record?
Answer: 7.2%

Question: COc1ccc(C(c2c(O)c3ccccc3oc2=O)c2c(O)c3ccccc3oc2=O)cc1Cn1nc(C)c([N+](=O)[O-])c1C [S33, STK528708] was tested. Which activity did it give?
Answer: 0.1%

Question: Nc1ncnc2c1c(I)cn2[C@@H]1O[C@H](CO)[C@@H](O)[C@H]1O [S47, 5-Iodotubercidin] was tested. Which activity did it give?
Answer: 4.9%

Question: How did the activity turn out when O=c1[nH]c2ccc(Cl)cc2c(N[C@@H]2CN3CCC2CC3)c1-c1nc2ccccc2[nH]1 [S45, CHIR 124] was run?
Answer: 6.5%

Question: For O=C1/C(=C/c2ccccc2F)CNC/C1=C\c1ccccc1F [S49, EF-24], which activity is on record?
Answer: 10.2%

Question: For COc1ccc(CNC(=O)Nc2ncc([N+](=O)[O-])s2)cc1 [S36, AR-A014418], which activity is on record?
Answer: 10.8%

Question: COc1ccc(C(c2c(O)c3ccccc3oc2=O)c2c(O)c3ccccc3oc2=O)cc1CSc1ccccn1 [S29, STK529529] was tested. Which activity did it give?
Answer: 2.8%

Same assay, conditions: Homo sapiens, 8 h, read-out: % Inhibition (luciferase activity relative to TBZ-treated supernatant)

Question: With COc1cccc2c1C(=O)c1c(O)c3c(c(O)c1C2=O)C[C@@](O)(C(C)=O)C[C@@H]3O[C@H]1C[C@H](N)[C@H](O)[C@H](C)O1 [S61, Daunorubicin] as the compound, how does the activity at 20 µM read?
Answer: 6%

Question: CC(C)CN(C[C@@H](O)[C@H](Cc1ccccc1)NC(=O)O[C@H]1CO[C@H]2OCC[C@H]21)S(=O)(=O)c1ccc(N)cc1 [S23, Prezista] was tested. Which activity at 20 µM did it give?
Answer: 11.2%

Same assay, conditions: Homo sapiens; 20 μM compound with TBZ, 8 h; TBZ alone = 100, DPBS = 0; read-out: % Inhibition (luciferase activity relative to TBZ-treated supernatant)

Question: Which activity at 20 µM does the source give for COC(=O)[C@]12CCC(C)(C)C[C@H]1[C@H]1C(=O)C=C3[C@@]4(C)C=C(C#N)C(=O)C(C)(C)[C@@H]4CC[C@@]3(C)[C@]1(C)CC2 [S8, Bardoxolone methyl] here?
Answer: 0%

Question: Which activity at 20 µM does the source give for CC[C@@]1(O)C(=O)OCc2c1cc1n(c2=O)Cc2cc3c(CN(C)C)c(O)ccc3nc2-1 [S65, Topotecan hydrochloride] here?
Answer: 5.2%

Question: How did the activity at 20 µM turn out when CNCc1ccc(-c2[nH]c3cc(F)cc4c3c2CCNC4=O)cc1 [S42, Rucaparib] was run?
Answer: 9.1%

Question: Cc1ccc(F)c(NC(=O)Nc2ccc(-c3cccc4[nH]nc(N)c34)cc2)c1 [S20, Linifanib] was tested. Which activity at 20 µM did it give?
Answer: 0%

Question: O=C(Nc1cccc2c(=O)cc(-c3nnn[nH]3)oc12)c1ccc(OCCCCc2ccccc2)cc1 [S50, Pranlukast] was tested. Which activity at 20 µM did it give?
Answer: 10.9%

Question: With CN(C)CCOC(c1ccccc1)c1ccccc1 [S70, Diphenhydramine] as the compound, how does the activity at 20 µM read?
Answer: 19.1%

Question: Which activity at 20 µM does the source give for NC(CO)(CO)CO [S59, Trometamol] here?
Answer: 11%

Question: For CO[C@H]1C[C@@H]2CC[C@@H](C)[C@@](O)(O2)C(=O)C(=O)N2CCCC[C@H]2C(=O)O[C@H]([C@H](C)C[C@@H]2CC[C@@H](OC(=O)C(C)(CO)CO)[C@H](OC)C2)CC(=O)[C@H](C)/C=C(\C)[C@@H](O)[C@@H](OC)C(=O)[C@H](C)C[C@H](C)/C=C/C=C/C=C/1C [S9, Temsirolimus], which activity at 20 µM is on record?
Answer: 19%

Question: How did the activity at 20 µM turn out when O=C(NC1CCNCC1)c1[nH]ncc1NC(=O)c1c(Cl)cccc1Cl [S39, AT7519] was run?
Answer: 19.5%

Question: Which activity at 20 µM does the source give for CCc1c(Cl)c(O)c(Cl)c(O)c1C(=O)O[C@H]1[C@H](O)[C@H](OC)[C@H](OC/C2=C\C=C\C[C@H](O)/C(C)=C/[C@H](CC)[C@@H](O[C@@H]3OC(C)(C)[C@@H](OC(=O)C(C)C)[C@H](O)[C@@H]3O)/C(C)=C/C(C)=C/C[C@@H]([C@@H](C)O)OC2=O)O[C@@H]1C [S5, Fidaxomicin] here?
Answer: 5.9%

Question: Which activity at 20 µM does the source give for CC1(C)CNc2cc(NC(=O)c3cccnc3NCc3ccncc3)ccc21 [S37, Motesanib] here?
Answer: 9.4%

Question: How did the activity at 20 µM turn out when C#C[C@]1(O)CC[C@H]2[C@@H]3CCc4cc(OC5CCCC5)ccc4[C@H]3CC[C@@]21C [S54, Quinestrol] was run?
Answer: 8.2%

Question: For Nc1ccc2cc3ccc(N)cc3nc2c1 [S55, Proflavine hemisulfate], which activity at 20 µM is on record?
Answer: 3.5%

Question: For O=S(=O)(c1cccc2cnccc12)N1CCCNCC1 [S68, Fasudil hydrochloride], which activity at 20 µM is on record?
Answer: 6%

Question: For Cc1cc(SCc2sc(-c3ccc(C(F)(F)F)cc3)nc2C)ccc1OCC(=O)O [S41, GW 501516], which activity at 20 µM is on record?
Answer: 9.1%

Question: With O=C(O)Cc1cccc(OCCCN(Cc2cccc(C(F)(F)F)c2Cl)CC(c2ccccc2)c2ccccc2)c1 [S40, GW3965] as the compound, how does the activity at 20 µM read?
Answer: 11.6%

Question: With COc1cccc2c1C(=O)c1c(O)c3c(c(O)c1C2=O)C[C@@](O)(C(=O)CO)C[C@@H]3O[C@H]1C[C@H](N)[C@H](O[C@@H]2CCCCO2)[C@H](C)O1 [S57, Pirarubicin] as the compound, how does the activity at 20 µM read?
Answer: 6.4%

Question: Which activity at 20 µM does the source give for CC(C)[C@H](CO)Nc1nc(Nc2cccc(Cl)c2)c2ncn(C(C)C)c2n1 [S44, Purvalanol A] here?
Answer: 3.8%

Question: Which activity at 20 µM does the source give for C=C(CC)C(=O)c1ccc(OCC(=O)O)c(Cl)c1Cl [S26, Ethacrynic acid] here?
Answer: 3%

Question: For CC(=O)[C@@]1(O)CC[C@H]2[C@@H]3CCC4=CC(=O)CCC4=C3[C@@H](c3ccc(N(C)C)cc3)C[C@@]21C [S24, Ulipristal], which activity at 20 µM is on record?
Answer: 14%

Question: For CN1CCN(c2nc(C3=C(c4c[nH]c5ccccc45)C(=O)NC3=O)c3ccccc3n2)CC1 [S22, Sotrastaurin], which activity at 20 µM is on record?
Answer: 4.7%

Question: With O=c1ncn2nc(Sc3ccc(F)cc3F)ccc2c1-c1c(Cl)cccc1Cl [S2, Neflamapimod] as the compound, how does the activity at 20 µM read?
Answer: 6.8%

Question: With Cc1ccc(-n2nc(C(C)(C)C)cc2NC(=O)Nc2ccc(OCCN3CCOCC3)c3ccccc23)cc1 [S51, Doramapimod] as the compound, how does the activity at 20 µM read?
Answer: 3.9%

Question: With O=C(N[C@H](CO)[C@H](O)c1ccc([N+](=O)[O-])cc1)C(Cl)Cl [S69, Chloramphenicol] as the compound, how does the activity at 20 µM read?
Answer: 0%

Question: With CCCS(=O)(=O)Nc1ccc(F)c(C(=O)c2c[nH]c3ncc(-c4ccc(Cl)cc4)cc23)c1F [S30, Vemurafenib] as the compound, how does the activity at 20 µM read?
Answer: 6.4%

Question: For CC[C@H]1CN2CCc3cc(OC)c(OC)cc3[C@@H]2C[C@@H]1C[C@H]1NCCc2cc(OC)c(OC)cc21 [S13, Emetine dihydrochloride], which activity at 20 µM is on record?
Answer: 3.3%

Question: With COc1cc2nccc(Oc3ccc(NC(=O)C4(C(=O)Nc5ccc(F)cc5)CC4)cc3)c2cc1OC [S14, Cabozantinib] as the compound, how does the activity at 20 µM read?
Answer: 0.7%

Question: For COCCOC(=O)C1=C(C)NC(C)=C(C(=O)OC/C=C/c2ccccc2)C1c1cccc([N+](=O)[O-])c1 (centres unmarked) [S63, Cilnidipine], which activity at 20 µM is on record?
Answer: 11%

Question: With COC(=O)C1=C(C)NC(C)=C(C(=O)OCCN(C)Cc2ccccc2)C1c1cccc([N+](=O)[O-])c1 (centres unmarked) [S60, Nicardipine hydrochloride] as the compound, how does the activity at 20 µM read?
Answer: 3.8%

Question: For N#CC1(c2ccc(NC(=O)c3cccnc3NCc3ccncc3)cc2)CCCC1 [S43, Apatinib], which activity at 20 µM is on record?
Answer: 3.4%

Question: How did the activity at 20 µM turn out when CO[C@H]1C[C@@H]2CC[C@@H](C)[C@@](O)(O2)C(=O)C(=O)N2CCCC[C@H]2C(=O)O[C@H]([C@H](C)C[C@@H]2CC[C@@H](O)[C@H](OC)C2)CC(=O)[C@H](C)/C=C(\C)[C@@H](O)[C@@H](OC)C(=O)[C@H](C)C[C@H](C)/C=C/C=C/C=C/1C [S56, Sirolimus] was run?
Answer: 0.3%
